The source made the active and inactive calls. The rule behind the calls is not given here.
Key:
[1] = system: HA22T cell line; assay: Induction of apoptosis in human HA22T cells assessed as induction of DNA fragmentation at 1 uM incubated for 24 hrs by ELISA; format: functional, cell-based
[2] = system: HA22T cell line; assay: Induction of apoptosis in human HA22T cells assessed as accumulation at subG1 phase at 0.5 to 4 uM by flow cytometry; format: functional, cell-based
[3] = system: HA22T cell line; assay: Induction of necrosis in human HA22T cells >= 2 uM incubated for 48 hrs by annexin-V-FITC staining based by flow cytometry relative to control; format: functional
[4] = system: HA22T cell line; assay: Induction of apoptosis in human HA22T cells assessed as caspase-9 activation at 0.5 to 4 uM incubated for 48 hrs by Western blotting analysis; format: functional, cell-based
[5] = system: Hep 3B2; assay: Induction of apoptosis in human Hep3B cells assessed as caspase-3 activation at 0.5 to 4 uM incubated for 48 hrs by Western blotting analysis; format: functional, cell-based
[6] = species on record: Homo sapiens; assay: Induction of apoptosis in human PLC5 cells assessed as induction of PARP cleavage at 2 uM in presence of caspase inhibitor Z-VAD-fmk incubated for 48 hrs by Western blotting analysis; format: functional, cell-based
[7] = system: Hep 3B2; assay: Induction of apoptosis in human Hep3B cells at 2 uM in presence of caspase inhibitor Z-VAD-fmk incubated for 48 hrs by annexin-V-FITC staining based by flow cytometry; format: functional, cell-based
[8] = species on record: Homo sapiens; assay: Induction of apoptosis in human PLC5 cells at 2 uM in presence of caspase inhibitor Z-VAD-fmk incubated for 48 hrs by annexin-V-FITC staining based by flow cytometry; format: functional, cell-based
[9] = system: HA22T cell line; assay: Inhibition of CIP2A protein expression in human HA22T cells assessed as CIP2A protein expression ratio level at 2 uM by Western blotting analysis (Rvb =1); format: functional
[10] = system: Hep 3B2; assay: Inhibition of CIP2A protein expression in human Hep3B cells assessed as CIP2A protein expression ratio level at 2 uM by Western blotting analysis (Rvb =1); format: functional
[11] = system: SK-HEP1; assay: Inhibition of CIP2A protein expression in human SKHEP1 cells assessed as CIP2A protein expression ratio level at 4 uM by Western blotting analysis (; format: functional
[12] = system: HA22T cell line; assay: Inhibition of CIP2A protein expression in human HA22T cells at 1 uM by Western blotting analysis; format: functional, cell-based; settings: TDE = time-dependent effect
[13] = system: SK-HEP1; assay: Inhibition of PP2A-B5 protein expression in human SKHEP1 cells at 1 uM incubated for 24 hrs by Western blotting analysis; format: functional, cell-based
[14] = system: SK-HEP1; assay: Inhibition of PP2A-C protein expression in human SKHEP1 cells at 1 uM incubated for 24 hrs by Western blotting analysis; format: functional, cell-based
[15] = species on record: Homo sapiens; assay: Inhibition of PP2A-A protein expression in human PLC5 cells at 1 uM incubated for 24 hrs by Western blotting analysis; format: functional, cell-based
[16] = species on record: Homo sapiens; assay: Induction of apoptosis in human PLC5 cells at 2 uM incubated for 24 hrs in presence of 100 nM PP2A inhibitor okadaic acid by annexin-V-FITC staining based by flow cytometry; format: functional, cell-based
[17] = species on record: Homo sapiens; assay: Inhibition of human CIP2A gene promoter in human PLC5 cells with ectopic overexpression of GFP-tagged Elk-1 assessed as inhibition of ELK1 protein expression at 2 uM by Western blotting analysis; format: cell-based
[18] = system: Homo sapiens; assay: Antitumor activity against human PLC5 cells xenografted in mouse assessed as reduction in tumor size at 10 mg/kg dosed for 4 weeks; format: functional, organism-based
[19] = system: Mus musculus; assay: Suppression of CIP2A expression in tumor of human PLC5 cells xenografted in mouse at 10 mg/kg dosed for 4 weeks by Western blot analysis; format: functional, organism-based
[20] = species on record: Homo sapiens; assay: Activation of PP2A in human PLC5 cells assessed as minimal concentration causing increase in protein phosphatase activity incubated for 24 hrs using phosphopeptide substrate incubated for 10 mins by malachite green-phosphate complex assay; format: cell-based

For `C#Cc1cccc(Nc2nc3ccccc3nc2Nc2cccc(C#C)c2)c1`, the Activity [1] was “Active”, the Activity [2] was “Active” and the Activity [3] was 50%. For the same compound, the Activity [4] was “Dose-dependent effect”, the Activity [5] was “Dose-dependent effect” and the Activity [6] was “inactive”. The Activity [7] was “inactive”, the Activity [8] was “inactive” and the Ratio [9] was 0.36. The Ratio [10] was 0.49, the Ratio [11] was 0.1 and the inhibition [12] was “Tde”. The inhibition [13] was “inactive”, the inhibition [14] was “inactive” and the inhibition [15] was “inactive”. For the same compound, the Activity [16] was “inactive”, the inhibition [17] was “inactive” and the Activity [18] was “Active”. The Activity [19] was “Active” and the MEC [20] was 100 to 200 nM.
